Experimental data reported in patent US20040063662A1, “Selenophene anti-tumor agents” (priority 1996, published 2004).

Columns and labels:
SK-MEL-5 = assay: NCI human tumor cell panel: SK-MEL-5 (Melanoma); format: cell-based; conditions: SK-MEL-5, Melanoma
HOP-62 = assay: NCI human tumor cell panel: HOP-62 (Non-Small Cell Lung Cancer); format: cell-based; conditions: HOP-62, Non-Small Cell Lung Cancer
IGROV1 = assay: NCI human tumor cell panel: IGROV1 (Ovarian Cancer); format: cell-based; conditions: IGROV-1, IGROV1, Ovarian Cancer
MCF7 = assay: NCI human tumor cell panel: MCF7 (Breast Cancer); format: cell-based; conditions: MCF7, Breast Cancer
MDA-N = assay: NCI human tumor cell panel: MDA-N (Breast Cancer); format: cell-based; conditions: Breast Cancer
OVCAR-8 = assay: NCI human tumor cell panel: OVCAR-8 (Ovarian Cancer); format: cell-based; conditions: OVCAR-8, Ovarian Cancer
SW-620 = assay: NCI human tumor cell panel: SW-620 (Colon Cancer); format: cell-based; conditions: SW-620, Colon Cancer, read-out: Log10 TGI (converted)
MDA-MB-435 = assay: NCI human tumor cell panel: MDA-MB-435 (Breast Cancer); format: cell-based; conditions: MDA-MB-435, Breast Cancer
SNB-75 = assay: NCI human tumor cell panel: SNB-75 (CNS Cancer); format: cell-based; conditions: SNB-75, CNS Cancer, read-out: Log10 GI50 (converted)
SK-MEL-2 = assay: NCI human tumor cell panel: SK-MEL-2 (Melanoma); format: cell-based; conditions: SK-MEL-2, Melanoma
CCRF-CEM = assay: NCI human tumor cell panel: CCRF-CEM (Leukemia); format: cell-based; conditions: Leukemia
SF-295 = assay: NCI human tumor cell panel: SF-295 (CNS Cancer); format: cell-based; conditions: SF-295, CNS Cancer
SF-539 = assay: NCI human tumor cell panel: SF-539 (CNS Cancer); format: cell-based; conditions: SF-539, CNS Cancer
HOP-92 = assay: NCI human tumor cell panel: HOP-92 (Non-Small Cell Lung Cancer)
OVCAR-4 = assay: NCI human tumor cell panel: OVCAR-4 (Ovarian Cancer); format: cell-based; conditions: OVCAR-4, Ovarian Cancer
786-0 = assay: NCI human tumor cell panel: 786-0 (Renal Cancer); format: cell-based; conditions: 786-0, Renal Cancer
UACC-62 = assay: NCI human tumor cell panel: UACC-62 (Melanoma); format: cell-based; conditions: UACC-62, Melanoma
UO-31 = assay: NCI human tumor cell panel: UO-31 (Renal Cancer); format: cell-based; conditions: UO-31, Renal Cancer
SR = assay: NCI human tumor cell panel: SR (Leukemia); format: cell-based; conditions: Leukemia
RPMI-8226 = assay: NCI human tumor cell panel: RPMI-8226 (Leukemia); format: cell-based; conditions: RPMI-8226, Leukemia
MCF7/ADR-RES = assay: NCI human tumor cell panel: MCF7/ADR-RES (Breast Cancer); format: cell-based; conditions: Breast Cancer
UACC-257 = assay: NCI human tumor cell panel: UACC-257 (Melanoma); format: cell-based; conditions: UACC-257, Melanoma
NCI-H23 = assay: NCI human tumor cell panel: NCI-H23 (Non-Small Cell Lung Cancer); format: cell-based; conditions: NCI-H23, Non-Small Cell Lung Cancer
OVCAR-5 = assay: NCI human tumor cell panel: OVCAR-5 (Ovarian Cancer); format: cell-based; conditions: OVCAR-5, Ovarian Cancer
SN12C = assay: NCI human tumor cell panel: SN12C (Renal Cancer); format: cell-based; conditions: Renal Cancer
HS 578T = assay: NCI human tumor cell panel: HS 578T (Breast Cancer); format: cell-based; conditions: Breast Cancer
BT-549 = assay: NCI human tumor cell panel: BT-549 (Breast Cancer); format: cell-based; conditions: BT-549, Breast Cancer
DU-145 = assay: NCI human tumor cell panel: DU-145 (Prostate Cancer); format: cell-based; conditions: DU-145, Prostate Cancer
A498 = assay: NCI human tumor cell panel: A498 (Renal Cancer); format: cell-based; conditions: A498, Renal Cancer
NCI-H460 = assay: NCI human tumor cell panel: NCI-H460 (Non-Small Cell Lung Cancer); format: cell-based; conditions: NCI-H460, Non-Small Cell Lung Cancer
M14 = assay: NCI human tumor cell panel: M14 (Melanoma); format: cell-based; conditions: M14, Melanoma
LOX IMVI = assay: NCI human tumor cell panel: LOX IMVI (Melanoma); format: cell-based; conditions: Melanoma
[1] = read-out: Log10 GI50 (converted)
[2] = read-out: Log10 TGI (converted)

SMILES: O=Cc1ccc(-c2ccc(-c3cccs3)[se]2)s1 [NSC 675346]
- GI50 (SK-MEL-5; [1]): 46.8 µM
- IC (TGI) (SK-MEL-5; [2]): > 100 µM
- GI50 (HOP-62; [1]): 64.6 µM
- IC (TGI) (HOP-62; [2]): > 100 µM
- GI50 (IGROV1; [1]): 0.162 µM
- IC (TGI) (IGROV1; [2]): 0.562 µM
- GI50 (MCF7; [1]): 0.813 µM
- IC (TGI) (MCF7; [2]): > 100 µM
- GI50 (MDA-N; [1]): > 100 µM
- IC (TGI) (MDA-N; [2]): > 100 µM
- GI50 (OVCAR-8; [1]): 4.47 µM
- IC (TGI) (OVCAR-8; [2]): > 100 µM
- IC (TGI) (SW-620): > 100 µM
- GI50 (MDA-MB-435; [1]): 28.2 µM
- IC (TGI) (MDA-MB-435; [2]): 87.1 µM
- GI50 (SNB-75): 13.8 µM
- GI50 (SK-MEL-2; [1]): 24.5 µM
- IC (TGI) (SK-MEL-2; [2]): > 100 µM
- GI50 (CCRF-CEM; [1]): > 100 µM
- IC (TGI) (CCRF-CEM; [2]): > 100 µM
- GI50 (SF-295; [1]): 21.4 µM
- IC (TGI) (SF-295; [2]): 69.2 µM
- GI50 (SF-539; [1]): 51.3 µM
- IC (TGI) (SF-539; [2]): > 100 µM
- GI50 (HOP-92; HOP-92, read-out: Log10 GI50 (converted)): 18.6 µM
- IC (TGI) (HOP-92; HOP-92, read-out: Log10 TGI): 70.8 µM
- GI50 (OVCAR-4; [1]): 0.12 µM
- IC (TGI) (OVCAR-4; [2]): 26.9 µM
- GI50 (786-0; [1]): 13.5 µM
- IC (TGI) (786-0; [2]): > 100 µM
- GI50 (UACC-62; [1]): < 0.01 µM
- IC (TGI) (UACC-62; [2]): 0.0282 µM
- GI50 (UO-31; [1]): 35.5 µM
- IC (TGI) (UO-31; [2]): > 100 µM
- GI50 (SR; [1]): > 100 µM
- IC (TGI) (SR; [2]): > 100 µM
- GI50 (RPMI-8226; [1]): > 100 µM
- IC (TGI) (RPMI-8226; read-out: Log10 TGI): > 100 µM
- GI50 (MCF7/ADR-RES; [1]): 13.2 µM
- IC (TGI) (MCF7/ADR-RES; [2]): 60.3 µM
- GI50 (UACC-257; [1]): 0.0263 µM
- IC (TGI) (UACC-257; [2]): 0.0832 µM
- GI50 (NCI-H23; [1]): 14.5 µM
- IC (TGI) (NCI-H23; [2]): 58.9 µM
- GI50 (OVCAR-5; [1]): 0.0447 µM
- IC (TGI) (OVCAR-5; [2]): 0.575 µM
- GI50 (SN12C; [1]): > 100 µM
- IC (TGI) (SN12C; [2]): > 100 µM
- GI50 (HS 578T; [1]): 23.4 µM
- IC (TGI) (HS 578T; [2]): > 100 µM
- GI50 (BT-549; [1]): ≥ 100 µM
- IC (TGI) (BT-549; [2]): > 100 µM
- GI50 (DU-145; [1]): 28.8 µM
- IC (TGI) (DU-145; [2]): > 100 µM
- GI50 (A498; [1]): 0.145 µM
- IC (TGI) (A498; [2]): 0.295 µM
- GI50 (NCI-H460; [1]): 0.251 µM
- IC (TGI) (NCI-H460; [2]): > 100 µM
- GI50 (M14; [1]): 28.2 µM
- IC (TGI) (M14; [2]): > 100 µM
- GI50 (LOX IMVI; [1]): 19.5 µM
- IC (TGI) (LOX IMVI; [2]): > 100 µM
